From US6100275A, “8-azabicyclo[3.2.1.]oct-2-ene derivatives, their preparation and use” (Neurosearch A/S, priority 1995, dated 2000) come the findings set out here.

Experiment [1] has as its system mice (immobility time, tail suspension). The experiment is described as follows: Tail suspension test for antidepressant activity (immobility time). Particulars: Mus musculus, 0.5 h, oral, 30 min before test, 6 min observation, graphical interpolation from at least 3 doses, read-out: ED50 (dose reducing the immobility to 100 sec). The class given is in vivo, mouse (female NMRI). The protocol: A decrease in the immobility time by mice suspended in their tail is seen after systemic administration of central stimulants and by antidepressants (Steru, L., Chermat, R., Thierry, B. & Simon, P. (1985) The tail suspension test: A new method for screening antidepressants in mice. Psychopharmacology 85:367-370.).
Female NMRI mice (20-25 g) habituated to the room (12 hours light/dark) for at least 16 hours and housed 25 per cage are used. The mice are suspended by the tail with adhesive tape to a rod 30 cm above the lab. bench 30 min after an oral administation of vehicle or drug. For the next 6 min the accumulated duration of immobility defined as no movements by the body or extremities (however head movements are not defined as movements) are noted. Six mice per dose are used.
Saline or vehicle treated mice have immobility time scores between 160-180 sec in average. An ED50 -value is calculated by graphical interpolation from at least 3 doses as the dose reducing the immobility to 100 sec.

Experiment [2] deals with T1, 3H-noradrenaline (NA) uptake in hippocampal synaptosomes (Rattus norvegicus, UniProt Q63380).
T1 construct: Hippocampi from male Wistar rats (150-200 g); from tissue; host or cells: hippocampus of male Wistar rats, crude synaptosomal P2 fraction
The experiment is described as follows: In vitro inhibition of 3H-noradrenaline (3H-NA) uptake in hippocampal synaptosomes. The class given is biochemical, rat (male Wistar). From the text: (§1) Specific neurotransmitter transporters/uptake sites on nerve terminals presumably function to terminate neuronal signaling by removing the neurotransmitters dopamine, noradrenaline and serotonin, respectively, from the synaptic cleft. The activity of the transporter integral proteins can be measured in vitro by synaptosomal uptake of ^3 H-dopamine, ^3 H-noradrenaline and ^3 H-serotonine, respectively.
In vitro Inhibition of ^3 H-noradrenaline (^3 H-NA) Uptake in Hippocampal Synaptosomes
Tissue preparation: Preparations are performed at 0-4° C. unless otherwise indicated. Hippocampi from male Wistar rats (150-200 g) are homogenized for 5-10 sec in 100 volumes of ice-cold 0.32M sucrose containing 1 mM pargyline using an Ultra-Turrax homogenizer. Monoamine oxidase activity will be inhibited in the presence of pargyline. The homogenate is centrifuged at 1000×g for 10 min. […]
Assay: Aliquots of 4.0 ml tissue suspension are added to 100 μl of test solution and 100 μl of ^3 H-NA (1 nM, final concentration), mixed and incubated for 90 min at 37° C. Non-specific uptake is determined using desipramine (1 μM, final concentration). […] The amount of radioactivity on the filters is determined by conventional liquid scintillation counting. Specific uptake is calculated as the difference between total uptake and non-specific uptake. […]

The target in experiment [3] is T2, 3H-5-hydroxytryptamine (5-HT, serotonin) uptake in cortical synaptosomes (Rattus norvegicus, UniProt P31652).
T2 construct: Cerebral cortices from male Wistar rats (150-200 g); from tissue; host or cells: cerebral cortex of male Wistar rats, crude synaptosomal P2 fraction
The experiment is described as follows: In vitro inhibition of 3H-5-hydroxytryptamine (3H-5-HT, serotonin) uptake in cortical synaptosomes. Format: biochemical, rat (male Wistar).
Excerpt: as §1
In vitro Inhibition of ^3 H-5-hydroxytryptamine (^3 H-5-HT, serotonin) Uptake in Cortical Synaptosomes
Tissue preparation: Preparations are performed at 0-4° C. unless otherwise indicated. Cerebral cortices from male Wistar rats (150-200 g) are homogenized for 5-10 sec in 100 volumes of ice-cold 0.32M sucrose containing 1 mM pargyline using an Ultra-Turrax homogenizer. Monoamine oxidase activity will be inhibited in the presence of pargyline. The homogenate is centrifuged at 1000×g for 10 min. […]
Assay: Aliquots of 4.0 ml tissue suspension are added to 100 μl of test solution and 100 μl of ^3 H-5-HT (1 nM, final concentration), mixed and incubated for 30 min at 37° C. Non-specific uptake is determined using citalopram (1 μM, final concentration). […] The amount of radioactivity on the filters is determined by conventional liquid scintillation counting. Specific uptake is calculated as the difference between total uptake and non-specific uptake. […]

The target of experiment [4] is T3, 3H-dopamine (DA) uptake in striatal synaptosomes (Rattus norvegicus, UniProt P23977).
T3 construct: Corpi striati from male Wistar rats (150-200 g); from tissue; host or cells: corpus striatum of male Wistar rats, crude synaptosomal P2 fraction
The experiment is described as follows: In vitro inhibition of 3H-dopamine (3H-DA) uptake in striatal synaptosomes. Format: biochemical, rat (male Wistar).
Excerpt: as §1
In vitro Inhibition of ^3 H-dopamine (^3 H-DA) Uptake in Striatal Synaptosomes
Tissue preparations: Preparations are performed at 0-4° C. unless otherwise indicated. Corpi striati from male Wistar rats (150-200 g) are homogenized for 5-10 sec in 100 volumes of ice-cold 0.32M sucrose containing 1 mM pargyline using an Ultra-Turrax homogenizer. Monoamine oxidase activity will be inhibited in the presence of pargyline. The homogenate is centrifuged at 1000×g for 10 min. […]
Assay: Aliquots of 4.0 ml tissue suspension are added to 100 μl of test solution and 100 μl of ^3 H-DA (1 nM, final concentration), mixed and incubated for 25 min at 37° C. Non-specific uptake is determined using benztropine (10 μM, final concentration). […] The amount of radioactivity on the filters is determined by conventional liquid scintillation counting. Specific uptake is calculated as the difference between total uptake and non-specific uptake. […]

T3 sequence (P23977 whole entry): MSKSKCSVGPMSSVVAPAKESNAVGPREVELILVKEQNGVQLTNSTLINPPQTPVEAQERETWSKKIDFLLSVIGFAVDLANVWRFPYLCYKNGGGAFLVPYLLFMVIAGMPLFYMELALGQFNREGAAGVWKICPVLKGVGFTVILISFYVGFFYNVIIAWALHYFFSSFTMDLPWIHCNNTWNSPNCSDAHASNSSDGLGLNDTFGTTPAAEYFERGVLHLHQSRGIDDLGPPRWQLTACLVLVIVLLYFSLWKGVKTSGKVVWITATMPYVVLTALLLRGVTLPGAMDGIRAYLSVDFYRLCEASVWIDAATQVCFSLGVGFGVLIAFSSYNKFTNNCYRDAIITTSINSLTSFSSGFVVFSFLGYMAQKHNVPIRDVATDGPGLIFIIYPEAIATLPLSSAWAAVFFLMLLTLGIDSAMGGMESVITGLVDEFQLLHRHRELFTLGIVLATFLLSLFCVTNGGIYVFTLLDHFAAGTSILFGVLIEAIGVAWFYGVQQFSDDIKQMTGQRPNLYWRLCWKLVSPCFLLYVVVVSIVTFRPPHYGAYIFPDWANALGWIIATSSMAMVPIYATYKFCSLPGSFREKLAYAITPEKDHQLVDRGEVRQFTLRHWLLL
T1 sequence (Q63380 1-617): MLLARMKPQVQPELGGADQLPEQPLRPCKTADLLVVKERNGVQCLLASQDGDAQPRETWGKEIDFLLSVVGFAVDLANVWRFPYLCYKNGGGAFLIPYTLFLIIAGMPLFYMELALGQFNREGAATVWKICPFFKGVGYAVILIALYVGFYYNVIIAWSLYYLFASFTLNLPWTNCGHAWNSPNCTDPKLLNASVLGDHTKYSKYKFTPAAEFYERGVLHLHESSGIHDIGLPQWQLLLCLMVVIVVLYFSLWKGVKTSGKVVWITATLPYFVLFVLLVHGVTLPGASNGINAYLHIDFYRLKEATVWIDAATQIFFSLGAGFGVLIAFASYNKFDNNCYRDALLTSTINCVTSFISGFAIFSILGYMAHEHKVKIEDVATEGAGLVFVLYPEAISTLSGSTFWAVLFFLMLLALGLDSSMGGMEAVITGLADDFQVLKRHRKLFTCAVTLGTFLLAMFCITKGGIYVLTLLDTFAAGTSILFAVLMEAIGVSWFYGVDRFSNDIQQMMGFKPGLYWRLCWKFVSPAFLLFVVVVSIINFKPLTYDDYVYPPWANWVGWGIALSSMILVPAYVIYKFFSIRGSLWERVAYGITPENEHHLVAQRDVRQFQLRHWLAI
T2 sequence (P31652 whole entry): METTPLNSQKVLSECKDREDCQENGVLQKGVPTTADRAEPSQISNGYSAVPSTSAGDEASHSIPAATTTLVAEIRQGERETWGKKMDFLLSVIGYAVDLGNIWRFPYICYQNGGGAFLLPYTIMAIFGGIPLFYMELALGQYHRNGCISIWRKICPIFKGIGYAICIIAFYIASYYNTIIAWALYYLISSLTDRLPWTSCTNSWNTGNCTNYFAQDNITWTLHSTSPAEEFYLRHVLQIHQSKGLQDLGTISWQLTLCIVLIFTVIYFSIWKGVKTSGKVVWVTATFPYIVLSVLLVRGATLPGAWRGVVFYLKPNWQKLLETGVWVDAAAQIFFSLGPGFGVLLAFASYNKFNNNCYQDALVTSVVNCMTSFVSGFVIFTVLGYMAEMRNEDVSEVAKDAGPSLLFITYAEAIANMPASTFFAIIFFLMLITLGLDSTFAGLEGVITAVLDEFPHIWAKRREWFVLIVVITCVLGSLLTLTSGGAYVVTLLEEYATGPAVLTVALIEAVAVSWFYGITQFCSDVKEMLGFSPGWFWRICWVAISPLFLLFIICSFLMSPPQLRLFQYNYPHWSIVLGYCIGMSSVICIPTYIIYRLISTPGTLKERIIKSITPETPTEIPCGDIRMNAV

The term ED50 denotes the midpoint of the dose-response relation. As usually defined, the IC50 is the concentration that inhibits the measured activity by half. A high value points to a need for much substance. On to `CN1C2C=C(c3ccc(Cl)c(Cl)c3)CC1CC2` (racemic) [(±)-3-(3,4-Dichlorophenyl)-8-methyl-8-azabicyclo[3.2.1]oct-2-ene], for which the ED50 in experiment [1] worked out at 0.96 mg/kg. Moreover, the values for the IC50 in experiment [2], in experiment [3] and in experiment [4] were 26 nM, 4.7 nM and 79 nM, respectively.
